According to patent US9993494B2, “Compositions and methods for treating fibrotic disease” (eFFECTOR Therapeutics, Inc., priority 2014, dated 2018):

Test system: normal human lung fibroblasts
Test: Ribosomal profiling: translational efficiency in TGFβ-treated fibroblasts
Type: cell-based
Conditions: TGFβ-treated fibroblasts
Procedure, shortened: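 Cells lysed on ice after a cold PBS wash containing cycloheximide. Ribosome-protected fragments and total mRNA were prepared with the ARTseq kit and sequenced by RNA-Seq. Reads were trimmed, mapped to the human genome and counted uniquely over coding regions per gene, with low-count genes excluded before differential translational-efficiency analysis.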

CC(C)n1nc(-c2cc3cc(O)ccc3[nH]2)c2c(N)ncnc21 [PP242]
renormalizing the translational profile of DNASE1L1 (ENSG00000013563): − (− = <0.9)
renormalizing the translational profile of ADAMTS6 (ENSG00000049192): − (− = <0.9)
renormalizing the translational profile of LETMD1 (ENSG00000050426): − (− = <0.9)
renormalizing the translational profile of PLEKHA5 (ENSG00000052126): − (− = <0.9)
renormalizing the translational profile of EIF4B (ENSG00000063046): + (+ = 0.9 to 1.5)
renormalizing the translational profile of RPL18 (ENSG00000063177): + (+ = 0.9 to 1.5)
renormalizing the translational profile of HIPK2 (ENSG00000064393): − (− = <0.9)
renormalizing the translational profile of ASPM (ENSG00000066279): + (+ = 0.9 to 1.5)
renormalizing the translational profile of RASSF1 (ENSG00000068028): − (− = <0.9)
renormalizing the translational profile of PABPC1 (ENSG00000070756): − (− = <0.9)
renormalizing the translational profile of RPL31 (ENSG00000071082): + (+ = 0.9 to 1.5)
renormalizing the translational profile of PLD1 (ENSG00000075651): − (− = <0.9)
renormalizing the translational profile of EDN1 (ENSG00000078401): − (− = <0.9)
renormalizing the translational profile of AURKA (ENSG00000087586): − (− = <0.9)
renormalizing the translational profile of EPB41L1 (ENSG00000088367): − (− = <0.9)
renormalizing the translational profile of RPL6 (ENSG00000089009): − (− = <0.9)
renormalizing the translational profile of P2RX7 (ENSG00000089041): + (+ = 0.9 to 1.5)
renormalizing the translational profile of RPLP0 (ENSG00000089157): − (− = <0.9)
renormalizing the translational profile of IGBP1 (ENSG00000089289): − (− = <0.9)
renormalizing the translational profile of IRAK3 (ENSG00000090376): − (− = <0.9)
renormalizing the translational profile of PABPC4 (ENSG00000090621): − (− = <0.9)
renormalizing the translational profile of FMO2 (ENSG00000094963): +++ (+++ = >2.0)
renormalizing the translational profile of ACOT7 (ENSG00000097021): − (− = <0.9)
renormalizing the translational profile of ATP5D (ENSG00000099624): − (− = <0.9)
renormalizing the translational profile of LGALS1 (ENSG00000100097): − (− = <0.9)
renormalizing the translational profile of EIF3L (ENSG00000100129): − (− = <0.9)
renormalizing the translational profile of RPL3 (ENSG00000100316): − (− = <0.9)
renormalizing the translational profile of CEP192 (ENSG00000101639): − (− = <0.9)
renormalizing the translational profile of AMMECR1 (ENSG00000101935): − (− = <0.9)
renormalizing the translational profile of PLP2 (ENSG00000102007): − (− = <0.9)
renormalizing the translational profile of EIF3E (ENSG00000104408): + (+ = 0.9 to 1.5)
renormalizing the translational profile of EEF1D (ENSG00000104529): − (− = <0.9)
renormalizing the translational profile of C19orf53 (ENSG00000104979): − (− = <0.9)
renormalizing the translational profile of GLTSCR2 (ENSG00000105373): + (+ = 0.9 to 1.5)
renormalizing the translational profile of RAB3D (ENSG00000105514): + (+ = 0.9 to 1.5)
renormalizing the translational profile of RPL18A (ENSG00000105640): + (+ = 0.9 to 1.5)
renormalizing the translational profile of COMP (ENSG00000105664): − (− = <0.9)
renormalizing the translational profile of GLCCI1 (ENSG00000106415): + (+ = 0.9 to 1.5)
renormalizing the translational profile of CORO2A (ENSG00000106789): − (− = <0.9)
renormalizing the translational profile of GDF10 (ENSG00000107623): − (− = <0.9)
renormalizing the translational profile of RPL28 (ENSG00000108107): − (− = <0.9)
renormalizing the translational profile of RPL19 (ENSG00000108298): − (− = <0.9)
renormalizing the translational profile of RASD1 (ENSG00000108551): − (− = <0.9)
renormalizing the translational profile of NAT9 (ENSG00000109065): − (− = <0.9)
renormalizing the translational profile of RPL34 (ENSG00000109475): − (− = <0.9)
renormalizing the translational profile of CRYAB (ENSG00000109846): − (− = <0.9)
renormalizing the translational profile of GAPDH (ENSG00000111640): + (+ = 0.9 to 1.5)
renormalizing the translational profile of C12orf57 (ENSG00000111678): − (− = <0.9)
renormalizing the translational profile of MDFI (ENSG00000112559): − (− = <0.9)
renormalizing the translational profile of HBEGF (ENSG00000113070): − (− = <0.9)
renormalizing the translational profile of RPL24 (ENSG00000114391): − (− = <0.9)
renormalizing the translational profile of EEF1B2 (ENSG00000114942): − (− = <0.9)
renormalizing the translational profile of IFIH1 (ENSG00000115267): + (+ = 0.9 to 1.5)
renormalizing the translational profile of DPH5 (ENSG00000117543): − (− = <0.9)
renormalizing the translational profile of PPL (ENSG00000118898): − (− = <0.9)
renormalizing the translational profile of PLEKHG1 (ENSG00000120278): − (− = <0.9)
renormalizing the translational profile of LIAS (ENSG00000121897): − (− = <0.9)
renormalizing the translational profile of GPSM2 (ENSG00000121957): − (− = <0.9)
renormalizing the translational profile of RPL21 (ENSG00000122026): − (− = <0.9)
renormalizing the translational profile of RPL5 (ENSG00000122406): + (+ = 0.9 to 1.5)
renormalizing the translational profile of INHBA (ENSG00000122641): − (− = <0.9)
renormalizing the translational profile of CIT (ENSG00000122966): − (− = <0.9)
renormalizing the translational profile of RPL23 (ENSG00000125691): − (− = <0.9)
renormalizing the translational profile of LAMP5 (ENSG00000125869): − (− = <0.9)
renormalizing the translational profile of NECAB3 (ENSG00000125967): − (− = <0.9)
renormalizing the translational profile of COX7C (ENSG00000127184): − (− = <0.9)
renormalizing the translational profile of LIF (ENSG00000128342): − (− = <0.9)
renormalizing the translational profile of MTUS1 (ENSG00000129422): + (+ = 0.9 to 1.5)
renormalizing the translational profile of ARHGEF6 (ENSG00000129675): − (− = <0.9)
renormalizing the translational profile of RPL36 (ENSG00000130255): − (− = <0.9)
renormalizing the translational profile of GDF15 (ENSG00000130513): − (− = <0.9)
renormalizing the translational profile of ASS1 (ENSG00000130707): − (− = <0.9)
renormalizing the translational profile of EIF2S3 (ENSG00000130741): − (− = <0.9)
renormalizing the translational profile of RPL27 (ENSG00000131469): − (− = <0.9)
renormalizing the translational profile of MATN3 (ENSG00000132031): − (− = <0.9)
renormalizing the translational profile of PPARG (ENSG00000132170): − (− = <0.9)
renormalizing the translational profile of RARRES3 (ENSG00000133321): − (− = <0.9)
renormalizing the translational profile of BIVM (ENSG00000134897): + (+ = 0.9 to 1.5)
renormalizing the translational profile of ATP5G2 (ENSG00000135390): + (+ = 0.9 to 1.5)
renormalizing the translational profile of KRT7 (ENSG00000135480): − (− = <0.9)
renormalizing the translational profile of HNRNPA1 (ENSG00000135486): + (+ = 0.9 to 1.5)
renormalizing the translational profile of IL6 (ENSG00000136244): − (− = <0.9)
renormalizing the translational profile of RPL35 (ENSG00000136942): − (− = <0.9)
renormalizing the translational profile of NOV (ENSG00000136999): − (− = <0.9)
renormalizing the translational profile of IER3 (ENSG00000137331): − (− = <0.9)
renormalizing the translational profile of DDX60 (ENSG00000137628): − (− = <0.9)
renormalizing the translational profile of RPLP1 (ENSG00000137818): − (− = <0.9)
renormalizing the translational profile of PAQR5 (ENSG00000137819): − (− = <0.9)
renormalizing the translational profile of AOX1 (ENSG00000138356): − (− = <0.9)
renormalizing the translational profile of FGF5 (ENSG00000138675): ++ (++ = 1.5 to 2.0)
renormalizing the translational profile of PDE5A (ENSG00000138735): − (− = <0.9)
renormalizing the translational profile of GAS2L3 (ENSG00000139354): − (− = <0.9)
renormalizing the translational profile of DIAPH3 (ENSG00000139734): − (− = <0.9)
renormalizing the translational profile of MYO19 (ENSG00000141140): − (− = <0.9)
renormalizing the translational profile of RPL13A (ENSG00000142541): − (− = <0.9)
renormalizing the translational profile of RPL11 (ENSG00000142676): − (− = <0.9)
renormalizing the translational profile of ACTA1 (ENSG00000143632): − (− = <0.9)
renormalizing the translational profile of PLEKHA6 (ENSG00000143850): − (− = <0.9)
renormalizing the translational profile of RPL32 (ENSG00000144713): − (− = <0.9)
renormalizing the translational profile of RPL37 (ENSG00000145592): − (− = <0.9)
renormalizing the translational profile of BTF3 (ENSG00000145741): − (− = <0.9)
renormalizing the translational profile of HIGD2A (ENSG00000146066): + (+ = 0.9 to 1.5)
renormalizing the translational profile of CREB5 (ENSG00000146592): − (− = <0.9)
renormalizing the translational profile of DENND2A (ENSG00000146966): − (− = <0.9)
renormalizing the translational profile of RPL10 (ENSG00000147403): − (− = <0.9)
renormalizing the translational profile of EIF3H (ENSG00000147677): − (− = <0.9)
renormalizing the translational profile of RPL7A (ENSG00000148303): − (− = <0.9)
renormalizing the translational profile of EIF3M (ENSG00000149100): − (− = <0.9)
renormalizing the translational profile of JPH2 (ENSG00000149596): − (− = <0.9)
renormalizing the translational profile of FAU (ENSG00000149806): − (− = <0.9)
renormalizing the translational profile of CCDC102B (ENSG00000150636): − (− = <0.9)
renormalizing the translational profile of FRMD4A (ENSG00000151474): − (− = <0.9)
renormalizing the translational profile of HOMER1 (ENSG00000152413): − (− = <0.9)
renormalizing the translational profile of PLEKHH2 (ENSG00000152527): − (− = <0.9)
renormalizing the translational profile of ANKH (ENSG00000154122): − (− = <0.9)
renormalizing the translational profile of ABCA6 (ENSG00000154262): − (− = <0.9)
renormalizing the translational profile of OBSCN (ENSG00000154358): − (− = <0.9)
renormalizing the translational profile of ADAMTS5 (ENSG00000154736): − (− = <0.9)
renormalizing the translational profile of OXA1L (ENSG00000155463): − (− = <0.9)
renormalizing the translational profile of C9orf85 (ENSG00000155621): + (+ = 0.9 to 1.5)
renormalizing the translational profile of RPL30 (ENSG00000156482): − (− = <0.9)
renormalizing the translational profile of EEF1A1 (ENSG00000156508): + (+ = 0.9 to 1.5)
renormalizing the translational profile of NRG1 (ENSG00000157168): − (− = <0.9)
renormalizing the translational profile of ADAMTS4 (ENSG00000158859): − (− = <0.9)
renormalizing the translational profile of RPL8 (ENSG00000161016): − (− = <0.9)
renormalizing the translational profile of RPL26 (ENSG00000161970): − (− = <0.9)
renormalizing the translational profile of RPL29 (ENSG00000162244): − (− = <0.9)
renormalizing the translational profile of CAMK2N1 (ENSG00000162545): − (− = <0.9)
renormalizing the translational profile of IGFBP7 (ENSG00000163453): − (− = <0.9)
renormalizing the translational profile of RPL22L1 (ENSG00000163584): − (− = <0.9)
renormalizing the translational profile of RPL9 (ENSG00000163682): − (− = <0.9)
